Earlier results as cited in US7687487B2, “Camptothecin-analog with a novel, “flipped” lactone-stable, E-ring and methods for making and using same” (BioNumerik Pharmaceuticals, Inc., priority 2007, dated 2010).
“Also recorded” adds a separate entry of the source. Read-outs that look alike come from different tables or passages of the source.

What was measured:
[1] = for Toxicity: et al, * Dose Limiting Toxicity
tumors by Tumor Type = conditions: et al
[2] = not given; remark: listed apart in the source
gastrointestinal cancer = conditions: after 2 months (8 or 9 weeks)
[3] = test system: advanced malignant melanoma; conditions: fifteen patients
[4] = 24 hours after administration, once daily for 5 days, 6.5-20 mg/m^2/day
[5] = versus lactone form

## CCc1c2c(nc3ccc(OC(=O)N4CCC(N5CCCCC5)CC4)cc13)-c1cc3c(c(=O)n1C2)COC(=O)[C@]3(O)CC [CPT-11, 7-ethyl-10-[4-(1-piperidino)-1-piperidino]carbonyloxy camptothecin]
[1]; Clavel, 90 min. QDx 3 Q21 Days, 37 Pts., 115 mg/m^2/d (33-115)
  Toxicity: neutropenia*; also recorded: diarrhea,; also recorded: vomiting,
[1]; Ohe, 120 hr CI Q3 wks, 36 Pts., 40 mg/m^2/d (5-40)
  Toxicity: diarrhea*; also recorded: vomiting,; also recorded: thrombocytopenia; also recorded: Anemia; also recorded: liver
[1]; Phase I clinical trials summarised in Table VII
  major reported dose-limiting toxicities: Neutropenia and diarrhea
Tumors by Tumor Type; Clavel, 37 Pts.
  Tumor Type: Breast, responses: (1 PR)
  Tumor Type: Mesothelioma, responses: (1 PR)
Tumors by Tumor Type; Culine, 59 Pts.
  Tumor Type: Esophagus, responses: (1 PR) cervix
  Tumor Type: Ovarian, responses: (1 PR)
  Tumor Type: cervix, responses: (1 PR) renal
  Tumor Type: renal, responses: (1 PR)
Tumors by Tumor Type; Negoro, 17 Pts.
  Tumor Type: NS CLC, responses: (2 PRs)
Tumors by Tumor Type; Ohe, 36 Pts.
  Tumor Type with responses: None
Tumors by Tumor Type; Rothenberg, 32 Pts.
  Tumor Type: Colon Ca, responses: (2 PRs)
Tumors by Tumor Type; Rowinsky, 32 Pts.
  Tumor Type: Cervix Ca, responses: (1 PR)
  Tumor Type: Colon Cancer, responses: (1 PR)

## CC[C@@]1(O)C(=O)OCc2c1cc1n(c2=O)Cc2cc3ccccc3nc2-1 [CPT sodium]
Doses of 20 to 30 mg/m^2
  bladder toxicity: dose limiting in three patients
Fifteen patients, 20-67 mg/m^2 weekly, intravenous push
  most prominent non-hematologic toxic effect: Cystitis
[2]; 5-Day Course, P < 0.05
  Cystitis (% of 27 Patients): 48 (P < 0.05) %
[2]; Single Dose method of administration
  Cystitis (% of 34 Patients): 24%
[2]; higher doses
  persistence of diarrhea: ≤ 4 weeks
[2]; in vivo
  onset of cystitis after treatment: 7 to 10 days
Gastrointestinal cancer
  patients with partial objective improvement: only two of their 61 patients
[3]; 90-360 mg/m^2 every 2 weeks
  50% or greater decrease in tumor diameter: None of the patients
  myelosuppression: 11 patients
[3]; no clinical benefit associated
  less pronounced transient tumor regression: three patients
[4]
  relation of plasma CPT levels to dose: little relation to the dose given

## CC[C@@](O)(C(=O)O)c1cc2n(c(=O)c1CO)Cc1cc3ccccc3nc1-2 [carboxylate form of CPT]
[5]
  reduction of anti-tumor activity: at least 10 fold
